In brackets after ≈: the same amount, converted by molar mass. Activity calls are given as the source filed them. The calls are words filed in the database; no cut-off is given here.
Tests used:
HT-1080 [1] = test: Induction of nitric oxide production in human HT1080 cells by Griess assay; format: functional; parameters: concentration or dose not given beside the values
MG-22A [2] = test: Cytotoxicity against mouse MG-22A cells assessed as cell viability at 6.25 to 50 ug/ml by crystal violet-based assay; format: functional
[3] = Cytotoxicity against mouse NIH/3T3 cells assessed as cell viability at 6.25 to 50 ug/ml by neutral red-based assay; conditions: nih3t3
Aspergillus niger [4] = test: Antifungal activity against Aspergillus niger MSCL 324 at 5 mg/ml after 48 hrs by agar dish diffusion method; format: functional
Escherichia coli [5] = test: Antibacterial activity against Escherichia coli MSCL 332 at 10 mg/ml after 24 hrs by agar dish diffusion method; format: functional; conditions: MSCL 332, 24 h, read-out: DIZ
HT-1080 [6] = test: (§1) Cytotoxicity against human HT1080 cells assessed as cell viability at 6.25 to 50 ug/ml by crystal violet-based assay; format: functional
MG-22A [7] = test: Induction of nitric oxide production in mouse MG-22A cells by Griess assay; format: functional; parameters: concentration or dose not given beside the values
Candida albicans [8] = test: Antifungal activity against Candida albicans MSCL 378 at 5 mg/ml after 48 hrs by agar dish diffusion method; format: functional; conditions: MSCL 378, 48 h, read-out: DIZ
Proteus mirabilis [9] = test: Antibacterial activity against Proteus mirabilis MSCL 590 at 10 mg/ml after 24 hrs by agar dish diffusion method; format: functional; conditions: MSCL 590, 24 h, read-out: DIZ
Proteus mirabilis [10] = test: Antibacterial activity against Proteus mirabilis MSCL 590 at 5 mg/ml after 24 hrs by agar dish diffusion method; format: functional; conditions: MSCL 590, 24 h, read-out: DIZ
Bacillus cereus [11] = test: Antibacterial activity against Bacillus cereus MSCL 330 at 10 mg/ml after 24 hrs by agar dish diffusion method; format: functional; conditions: MSCL 330, 24 h, read-out: DIZ
Aspergillus niger [12] = test: Antifungal activity against Aspergillus niger MSCL 324 at 10 mg/ml after 48 hrs by agar dish diffusion method; format: functional; conditions: MSCL 324, 48 h, read-out: DIZ
Candida albicans [13] = test: Antifungal activity against Candida albicans MSCL 378 at 10 mg/ml after 48 hrs by agar dish diffusion method; format: functional; conditions: MSCL 378, 48 h, read-out: DIZ
Pseudomonas aeruginosa [14] = test: Antibacterial activity against Pseudomonas aeruginosa MSCL 331 at 10 mg/ml after 24 hrs by agar dish diffusion method; format: functional
Escherichia coli [15] = test: Antibacterial activity against Escherichia coli MSCL 332 at 5 mg/ml after 24 hrs by agar dish diffusion method; format: functional; conditions: MSCL 332, 24 h, read-out: DIZ
Bacillus cereus [16] = test: Antibacterial activity against Bacillus cereus MSCL 330 at 5 mg/ml after 24 hrs by agar dish diffusion method; format: functional; conditions: MSCL 330, 24 h, read-out: DIZ
Staphylococcus aureus [17] = test: Antibacterial activity against Staphylococcus aureus MSCL 334 at 10 mg/ml after 24 hrs by agar dish diffusion method; format: functional
HT-1080 [18] = test: (§2) Cytotoxicity against human HT1080 cells assessed as cell viability at 6.25 to 50 ug/ml after 72 hrs by MTT assay; format: functional
Staphylococcus aureus [19] = test: Antibacterial activity against Staphylococcus aureus MSCL 334 at 5 mg/ml after 24 hrs by agar dish diffusion method; format: functional
MG-22A [20] = test: Cytotoxicity against mouse MG-22A cells assessed as cell viability at 6.25 to 50 ug/ml after 72 hrs by MTT assay; format: functional
Pseudomonas aeruginosa [21] = test: Antibacterial activity against Pseudomonas aeruginosa MSCL 331 at 5 mg/ml after 24 hrs by agar dish diffusion method; format: functional
CCRF S-180 [22] = test: Antitumor activity against mouse S180 cells allografted into ICR mouse assessed as tumor growth inhibition at 1.5 mg/kg, sc administered on day 1,2,3 and 7 after 24 hrs tumor transplantation measured on day 9; format: functional, organism-based
[23] = as §1; format: functional; conditions: HT-1080, read-out: LC50 (the source's name)
[24] = as §2; format: functional; conditions: HT-1080, 72 h, read-out: LC50 (the source's name)
CCRF S-180 [25] = test: Antitumor activity against mouse S180 cells allografted into ICR mouse assessed as tumor growth inhibition at 2.5 mg/kg, sc administered on day 1,2,3 and 7 after 24 hrs tumor transplantation measured on day 9; format: functional; conditions: CCRF S-180, sc, read-out: TGI
Aspergillus niger [26] = test: Antifungal activity against Aspergillus niger MSCL 324 at 4 mg/ml after 48 hrs by agar dish diffusion method; format: functional; conditions: MSCL 324, 48 h, read-out: DIZ
Staphylococcus aureus [27] = test: Antibacterial activity against Staphylococcus aureus MSCL 334 at 4 mg/ml after 24 hrs by agar dish diffusion method; format: functional, organism-based
Escherichia coli [28] = test: Antibacterial activity against Escherichia coli MSCL 332 at 4 mg/ml after 24 hrs by agar dish diffusion method; format: functional, organism-based
Bacillus cereus [29] = test: Antibacterial activity against Bacillus cereus MSCL 330 at 2 mg/ml after 24 hrs by agar dish diffusion method; format: functional, organism-based
Candida albicans [30] = test: Fungicidal activity against Candida albicans MSCL 378 incubated for 24 hrs followed by colony transfer to agar plates for 24 hrs by colony counting based assay; format: functional; conditions: MSCL 378, 24 h, read-out: MFC99.9
Candida albicans [31] = test: Antifungal activity against Candida albicans MSCL 378 after 24 hrs by broth dilution method; format: functional; conditions: MSCL 378, 24 h
Proteus mirabilis [32] = test: Antibacterial activity against Proteus mirabilis MSCL 590 at 2 mg/ml after 24 hrs by agar dish diffusion method; format: functional, organism-based
Pseudomonas aeruginosa [33] = test: Antibacterial activity against Pseudomonas aeruginosa MSCL 331 at 2 mg/ml after 24 hrs by agar dish diffusion method; format: functional, organism-based
Escherichia coli [34] = test: Antibacterial activity against Escherichia coli MSCL 332 at 2 mg/ml after 24 hrs by agar dish diffusion method; format: functional, organism-based
Proteus mirabilis [35] = test: Antibacterial activity against Proteus mirabilis MSCL 590 at 4 mg/ml after 24 hrs by agar dish diffusion method; format: functional, organism-based
Aspergillus niger [36] = test: Fungicidal activity against Aspergillus niger MSCL 324 incubated for 24 hrs followed by colony transfer to agar plates for 24 hrs by colony counting based assay; format: functional; conditions: MSCL 324, 24 h, read-out: MFC99.9
Aspergillus niger [37] = test: Antifungal activity against Aspergillus niger MSCL 324 after 24 hrs by broth dilution method; format: functional; conditions: MSCL 324, 24 h
Candida albicans [38] = test: Antifungal activity against Candida albicans MSCL 378 at 2 mg/ml after 48 hrs by agar dish diffusion method; format: functional; conditions: MSCL 378, 48 h, read-out: DIZ
Aspergillus niger [39] = test: Antifungal activity against Aspergillus niger MSCL 324 at 2 mg/ml after 48 hrs by agar dish diffusion method; format: functional; conditions: MSCL 324, 48 h, read-out: DIZ
Staphylococcus aureus [40] = test: Antibacterial activity against Staphylococcus aureus MSCL 334 at 2 mg/ml after 24 hrs by agar dish diffusion method; format: functional, organism-based
Bacillus cereus [41] = test: Antibacterial activity against Bacillus cereus MSCL 330 at 4 mg/ml after 24 hrs by agar dish diffusion method; format: functional, organism-based
Pseudomonas aeruginosa [42] = test: Antibacterial activity against Pseudomonas aeruginosa MSCL 331 at 4 mg/ml after 24 hrs by agar dish diffusion method; format: functional, organism-based
[43] = read-out: LC50 (the source's name)

Question: For Cc1c(CCO)sc[n+]1C.[I-], which Activity (HT-1080 [1]) is on record?
Answer: 2%

Question: What about the LC50 (MG-22A [2]) of the same compound?
Answer: inactive

Question: What about the LC50 [3] of the same compound?
Answer: 643 µg/mL

Question: And the zone of inhibition at 5000 µg/mL (Aspergillus niger [4]; MSCL 324, 48 h, read-out: DIZ)?
Answer: 9 mm

Question: And the zone of inhibition at 10000 µg/mL (Escherichia coli [5])?
Answer: 10 mm

Question: And the LC50 (HT-1080 [6])?
Answer: inactive

Question: And the Activity (MG-22A [7])?
Answer: 3%

Question: What about the zone of inhibition at 5000 µg/mL (Candida albicans [8]) of the same compound?
Answer: 13 mm

Question: What about the zone of inhibition at 10000 µg/mL (Proteus mirabilis [9]) of the same compound?
Answer: 8 mm

Question: And the zone of inhibition at 5000 µg/mL (Proteus mirabilis [10])?
Answer: 8 mm

Question: What about the zone of inhibition at 10000 µg/mL (Bacillus cereus [11]) of the same compound?
Answer: 8 mm

Question: What about the zone of inhibition at 10000 µg/mL (Aspergillus niger [12]) of the same compound?
Answer: 15 mm

Question: What about the zone of inhibition at 10000 µg/mL (Candida albicans [13]) of the same compound?
Answer: 13 mm

Question: And the “diameter of the inhibition zone (DIZ)” value (Pseudomonas aeruginosa [14])?
Answer: inactive

Question: What about the zone of inhibition at 5000 µg/mL (Escherichia coli [15]) of the same compound?
Answer: 10 mm

Question: What about the zone of inhibition at 5000 µg/mL (Bacillus cereus [16]) of the same compound?
Answer: 8 mm

Question: What about the “diameter of the inhibition zone (DIZ)” value (Staphylococcus aureus [17]) of the same compound?
Answer: inactive

Question: What about the LC50 (HT-1080 [18]) of the same compound?
Answer: inactive

Question: What about the “diameter of the inhibition zone (DIZ)” value (Staphylococcus aureus [19]) of the same compound?
Answer: inactive

Question: And the LC50 (MG-22A [20])?
Answer: inactive

Question: What about the “diameter of the inhibition zone (DIZ)” value (Pseudomonas aeruginosa [21]) of the same compound?
Answer: inactive

Question: Which Activity (HT-1080 [1]) does the source give for CCCCCCCCCCCOCCc1sc[n+](C)c1C.[I-] here?
Answer: 150%

Question: What about the CC50 (MG-22A [2]; [43]) of the same compound?
Answer: 1360 nM

Question: And the LC50 [3]?
Answer: 93.3 µM

Question: And the inhibition (CCRF S-180 [22])?
Answer: inactive

Question: What about the “diameter of the inhibition zone (DIZ)” value (Aspergillus niger [4]) of the same compound?
Answer: inactive

Question: What about the zone of inhibition at 10000 µg/mL (Escherichia coli [5]) of the same compound?
Answer: 27 mm

Question: And the CC50 [23]?
Answer: 1820 nM

Question: And the Activity (MG-22A [7])?
Answer: 150%

Question: What about the zone of inhibition at 5000 µg/mL (Candida albicans [8]) of the same compound?
Answer: 28 mm

Question: What about the zone of inhibition at 10000 µg/mL (Proteus mirabilis [9]) of the same compound?
Answer: 18 mm

Question: What about the zone of inhibition at 5000 µg/mL (Proteus mirabilis [10]) of the same compound?
Answer: 17 mm

Question: What about the zone of inhibition at 10000 µg/mL (Bacillus cereus [11]) of the same compound?
Answer: 26 mm

Question: What about the zone of inhibition at 10000 µg/mL (Aspergillus niger [12]) of the same compound?
Answer: 17 mm

Question: What about the zone of inhibition at 10000 µg/mL (Candida albicans [13]) of the same compound?
Answer: 30 mm

Question: What about the zone of inhibition at 10000 µg/mL (Pseudomonas aeruginosa [14]; MSCL 331, 24 h, read-out: DIZ) of the same compound?
Answer: 12 mm

Question: And the zone of inhibition at 5000 µg/mL (Escherichia coli [15])?
Answer: 25 mm

Question: What about the zone of inhibition at 5000 µg/mL (Bacillus cereus [16]) of the same compound?
Answer: 25 mm

Question: And the zone of inhibition at 10000 µg/mL (Staphylococcus aureus [17]; MSCL 334, 24 h, read-out: DIZ)?
Answer: 32 mm

Question: What about the CC50 [24] of the same compound?
Answer: 1820 nM

Question: What about the zone of inhibition at 5000 µg/mL (Staphylococcus aureus [19]; MSCL 334, 24 h, read-out: DIZ) of the same compound?
Answer: 29 mm

Question: And the CC50 (MG-22A [20]; [43])?
Answer: 1820 nM

Question: What about the zone of inhibition at 5000 µg/mL (Pseudomonas aeruginosa [21]; MSCL 331, 24 h, read-out: DIZ) of the same compound?
Answer: 11 mm

Question: And the inhibition in vivo at 2.5 mg/kg (CCRF S-180 [25])?
Answer: 56%

Question: What does the source list for OC(Cn1cncn1)(Cn1cncn1)c1ccc(F)cc1F [FLUCONAZOLE]?
Answer: zone of inhibition at 4000 µg/mL (Aspergillus niger [26]): 18 mm; diameter of the inhibition zone (DIZ) (Staphylococcus aureus [27]): inactive; diameter of the inhibition zone (DIZ) (Escherichia coli [28]): inactive; diameter of the inhibition zone (DIZ) (Bacillus cereus [29]): inactive; MFC (Candida albicans [30]): > 256 µg/mL; MIC (Candida albicans [31]): 32 µg/mL (≈ 104 µM); diameter of the inhibition zone (DIZ) (Proteus mirabilis [32]): inactive; diameter of the inhibition zone (DIZ) (Pseudomonas aeruginosa [33]): inactive; diameter of the inhibition zone (DIZ) (Escherichia coli [34]): inactive; diameter of the inhibition zone (DIZ) (Proteus mirabilis [35]): inactive; MFC (Aspergillus niger [36]): > 256 µg/mL; MIC (Aspergillus niger [37]): 8 µg/mL (≈ 26.1 µM); zone of inhibition at 2000 µg/mL (Candida albicans [38]): 10 mm; zone of inhibition at 2000 µg/mL (Aspergillus niger [39]): 11 mm; diameter of the inhibition zone (DIZ) (Staphylococcus aureus [40]): inactive; diameter of the inhibition zone (DIZ) (Bacillus cereus [41]): inactive; diameter of the inhibition zone (DIZ) (Pseudomonas aeruginosa [42]): inactive

From ChEMBL document CHEMBL3751718, “Synthesis and biological evaluation of lipid-like 5-(2-hydroxyethyl)-4-methyl-1,3-thiazole derivatives as potential anticancer and antimicrobial agents” (Medchemcomm, 2015)
